In the NIST ThermoML archive (doi:10.1016/j.jct.2009.08.009):
Numbers after ± are expanded uncertainties.

Test: xn = mol fraction of the nth substance listed
Details: 101 kPa, Liquid; for viscosity: Capillary tube (Ostwald / Ubbelohde) method; for speed of sound: Sing-around technique in a fixed-path interferometer; for mass density: Vibrating tube method

CCOCCOCCO [3,6-dioxa-1-octanol] + CCCCCCCCO
Details | mass density [kg/m3] | speed of sound [m/s] | viscosity [mPa·s]
293.15 K, x1 = 0.0518 | 832.339 ± 0.13 | 1364.1 ± 0.9 | 7.468 ± 0.042
293.15 K, x1 = 0.1011 | 839.204 ± 0.13 | 1363.5 ± 0.9 | 6.913 ± 0.039
293.15 K, x1 = 0.1625 | 848.155 ± 0.13 | 1363.1 ± 0.9 | 6.159 ± 0.035
293.15 K, x1 = 0.1944 | 853.018 ± 0.13 | 1363.7 ± 0.9 | 5.913 ± 0.034
293.15 K, x1 = 0.2538 | 862.076 ± 0.13 | 1364.5 ± 0.9 | 5.872 ± 0.034
293.15 K, x1 = 0.3165 | 872.254 ± 0.12 | 1365.7 ± 0.9 | 5.104 ± 0.031
293.15 K, x1 = 0.3685 | 880.933 ± 0.12 | 1370.8 ± 0.9 | 4.837 ± 0.029
293.15 K, x1 = 0.4975 | 904.111 ± 0.12 | 1377.4 ± 0.9 | 4.361 ± 0.026
293.15 K, x1 = 0.6048 | 925.139 ± 0.11 | 1387.7 ± 0.9 | 4.08 ± 0.025
293.15 K, x1 = 0.7202 | 949.653 ± 0.11 | 1399.5 ± 0.9 | 3.846 ± 0.023
293.15 K, x1 = 0.8165 | 971.878 ± 0.13 | 1415.1 ± 0.9 | 3.739 ± 0.023
293.15 K, x1 = 0.9144 | 996.047 ± 0.25 | 1349.4 ± 0.9 | 3.66 ± 0.022
293.15 K, x1 = 1 | – | – | 3.626 ± 0.022
298.15 K, x1 = 0.0518 | 828.835 ± 0.14 | 1347.1 ± 0.8 | 6.198 ± 0.036
298.15 K, x1 = 0.1011 | 835.659 ± 0.13 | 1346.5 ± 0.8 | 6.03 ± 0.035
298.15 K, x1 = 0.1625 | 844.559 ± 0.13 | 1346.3 ± 0.8 | 5.405 ± 0.032
298.15 K, x1 = 0.1944 | 849.396 ± 0.13 | 1346.7 ± 0.8 | 5.188 ± 0.031
298.15 K, x1 = 0.2538 | 858.398 ± 0.13 | 1347.6 ± 0.8 | 4.799 ± 0.029
298.15 K, x1 = 0.3165 | 868.522 ± 0.12 | 1348.9 ± 0.8 | 4.489 ± 0.027
298.15 K, x1 = 0.3685 | 877.154 ± 0.12 | 1354.1 ± 0.8 | 4.279 ± 0.026
298.15 K, x1 = 0.4975 | 900.211 ± 0.12 | 1360.7 ± 0.9 | 3.918 ± 0.024
298.15 K, x1 = 0.6048 | 921.137 ± 0.11 | 1370.9 ± 0.9 | 3.612 ± 0.022
298.15 K, x1 = 0.7202 | 945.535 ± 0.12 | 1382.7 ± 0.9 | 3.431 ± 0.021
298.15 K, x1 = 0.8165 | 991.74 ± 0.084 | 1398.2 ± 0.9 | 3.328 ± 0.02
298.15 K, x1 = 0.9144 | 938.234 ± 0.11 | 1332.2 ± 0.9 | 3.277 ± 0.02
298.15 K, x1 = 1 | – | – | 3.278 ± 0.02
303.15 K, x1 = 0.0518 | 825.317 ± 0.14 | 1330.3 ± 0.8 | 5.429 ± 0.032
303.15 K, x1 = 0.1011 | 832.097 ± 0.13 | 1329.8 ± 0.8 | 5.005 ± 0.03
303.15 K, x1 = 0.1625 | 840.951 ± 0.13 | 1329.5 ± 0.8 | 4.636 ± 0.028
303.15 K, x1 = 0.1944 | 845.762 ± 0.13 | 1329.6 ± 0.8 | 4.404 ± 0.027
303.15 K, x1 = 0.2538 | 854.713 ± 0.13 | 1330.1 ± 0.8 | 4.295 ± 0.026
303.15 K, x1 = 0.3165 | 864.78 ± 0.13 | 1330.9 ± 0.8 | 3.845 ± 0.023
303.15 K, x1 = 0.3685 | 873.364 ± 0.12 | 1332.3 ± 0.8 | 3.67 ± 0.022
303.15 K, x1 = 0.4975 | 896.3 ± 0.12 | 1337.5 ± 0.8 | 3.396 ± 0.021
303.15 K, x1 = 0.6048 | 917.122 ± 0.11 | 1343.9 ± 0.8 | 3.141 ± 0.019
303.15 K, x1 = 0.7202 | 941.409 ± 0.11 | 1354.3 ± 0.9 | 3.045 ± 0.019
303.15 K, x1 = 0.8165 | 963.444 ± 0.12 | 1381.3 ± 0.9 | 2.904 ± 0.018
303.15 K, x1 = 0.9144 | 987.41 ± 0.12 | 1315 ± 0.8 | 2.848 ± 0.018
303.15 K, x1 = 1 | – | – | 2.862 ± 0.018
308.15 K, x1 = 0.0518 | 821.777 ± 0.14 | 1313.7 ± 0.8 | 4.542 ± 0.028
308.15 K, x1 = 0.1011 | 828.522 ± 0.14 | 1313.2 ± 0.8 | 4.219 ± 0.026
308.15 K, x1 = 0.1625 | 837.324 ± 0.13 | 1312.9 ± 0.8 | 3.897 ± 0.024
308.15 K, x1 = 0.1944 | 842.106 ± 0.13 | 1312.9 ± 0.8 | 3.781 ± 0.023
308.15 K, x1 = 0.2538 | 851.006 ± 0.13 | 1313.5 ± 0.8 | 3.548 ± 0.022
308.15 K, x1 = 0.3165 | 861.019 ± 0.13 | 1314.5 ± 0.8 | 3.327 ± 0.02
308.15 K, x1 = 0.3685 | 869.558 ± 0.12 | 1315.7 ± 0.8 | 3.169 ± 0.019
308.15 K, x1 = 0.4975 | 892.371 ± 0.12 | 1320.9 ± 0.8 | 2.928 ± 0.018
308.15 K, x1 = 0.6048 | 913.092 ± 0.11 | 1327.4 ± 0.8 | 2.721 ± 0.017
308.15 K, x1 = 0.7202 | 937.267 ± 0.11 | 1337.7 ± 0.8 | 2.6 ± 0.016
308.15 K, x1 = 0.8165 | 959.204 ± 0.1 | 1349.3 ± 0.9 | 2.532 ± 0.016
308.15 K, x1 = 0.9144 | 983.069 ± 0.099 | 1364.5 ± 0.9 | 2.493 ± 0.016
308.15 K, x1 = 1 | – | – | 2.507 ± 0.016
